Laboratory results from patent US11440886B2, “Anti-inflammatory compound, and preparation and use thereof” (E-Nitiate Biopharmaceuticals (Hangzhou) Co., Ltd., priority 2018, dated 2022).

Experiments:
PDE4 = conditions: background statement; cited from earlier work
cytokine release = conditions: background statement; cited from earlier work
eczema = conditions: patients with eczema; cited from earlier work
[1] = target: human recombinant PDE4B1 enzyme (Homo sapiens (Human), UniProt Q07343); assay: Inhibition of PDE4B1 activity by cAMP HTRF assay; format: biochemical; conditions: human recombinant PDE4B1, cAMP 40 nM, pH 7.4
Chain of human recombinant PDE4B1 enzyme (Q07343 whole entry): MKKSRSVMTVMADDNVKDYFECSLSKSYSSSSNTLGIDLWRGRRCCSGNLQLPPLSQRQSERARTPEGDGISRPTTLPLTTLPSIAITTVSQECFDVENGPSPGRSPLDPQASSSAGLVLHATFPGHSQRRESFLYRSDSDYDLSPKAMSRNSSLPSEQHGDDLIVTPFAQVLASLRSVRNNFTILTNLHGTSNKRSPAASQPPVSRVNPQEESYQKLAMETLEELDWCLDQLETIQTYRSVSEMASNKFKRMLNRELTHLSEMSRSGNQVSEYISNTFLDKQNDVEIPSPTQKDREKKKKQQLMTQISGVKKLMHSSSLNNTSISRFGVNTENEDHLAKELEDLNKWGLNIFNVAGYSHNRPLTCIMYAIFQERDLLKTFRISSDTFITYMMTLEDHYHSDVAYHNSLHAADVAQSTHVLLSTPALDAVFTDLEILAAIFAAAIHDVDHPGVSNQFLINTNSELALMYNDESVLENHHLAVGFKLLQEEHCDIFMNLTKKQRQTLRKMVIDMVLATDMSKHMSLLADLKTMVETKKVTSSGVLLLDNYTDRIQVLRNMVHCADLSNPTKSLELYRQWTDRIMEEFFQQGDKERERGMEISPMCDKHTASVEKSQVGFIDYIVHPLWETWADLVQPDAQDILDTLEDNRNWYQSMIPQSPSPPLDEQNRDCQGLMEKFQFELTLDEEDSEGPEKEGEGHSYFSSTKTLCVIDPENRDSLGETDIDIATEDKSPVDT
Procedure, shortened: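 Recombinant human PDE4B1 (4.8 U) was preincubated 10 min with compound in HBSS/HEPES/MgCl2/BSA, pH 7.4, then 40 nM cAMP was added for 60 min at RT. Remaining cAMP was read by HTRF after IBMX stop; IC50 from eight concentrations in duplicate, repeated twice.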

[2] = system: human peripheral blood mononuclear cells (PBMCs); assay: Inhibition of LPS-induced TNFα release by peripheral blood mononuclear cells (PBMCs); format: cell-based; conditions: PBMC, TNFα level in supernatant, LPS 1 ug/mL, 24 hours, Luminex
Protocol: Inhibition of the compounds on proinflammatory cytokine release by peripheral blood mononuclear cells (PBMCs)
The effect of the compounds on the release characteristics of TNFa cytokines in frozen human peripheral blood mononuclear cells (PBMCs) was determined.
Fresh human PBMCs were isolated, and suspended in a fresh medium. The PBMC medium (CM) is RPMI1640 containing 10% FBS, 1% PBS, and 2 mM L-glutamine. The cells were plated at a density of 2*10^5 cells/well (100 ul). The test compound was dissolved in DMSO to form a 10 mM sample (DMSO, 100%). The compound was diluted with PBMC medium to the required concentrations. The sample (50 uL) was incubated for 1 hr with cells at 37° C., 5% CO2, after which the inducer (LPS, 1 ug/mL) was added. The inducer+vehicle (LPS+0.05% DMSO) was used as a control in this experiment. The vehicle without inducer was used as a negative control. Crisaborole was used as a positive control. After 24 hours of incubation, the supernatant was extracted and stored at −80° C. The supernatant was thawed and the TNFα level in the supernatant was measured by Luminex4-plex assay.

| IC50 [1] [nM] | Structure (SMILES) | enzyme inhibition activity (PDE4) | cell activity inhibiting cytokine release (cytokine release) | clinical effect on eczema higher than that of the blank control (eczema) | proportion of patients who cannot benefit (eczema) | EC50 [2] [nM] |
| --- | --- | --- | --- | --- | --- | --- |
| – | N#Cc1ccc(Oc2ccc3c(c2)COB3O)cc1 [Crisaborole] | about 100 nM | about 500 nM | about 10% | about 50% | – |
| 26.4 | COc1ccc(/C=C/n2c(C)cc(=O)cc2C)cc1OCCSC [Example 77, (E)-1-(3-methylthioethoxy-4-methoxystyryl)-2,6-dimethylpyridin-4(1H)-one] | – | – | – | – | 11 |
| 7 | COc1ccc(/C=C/n2c(C)cc(=O)cc2C)cc1OC1CCSC1 (stereo not shown) [Example 80, (E)-1-((3-(tetrahydrothiophen-3-yl)oxy-4-methoxy)-styryl)-2,6-dimethylpyridin-4(1H)-one] | – | – | – | – | < 5 |
| 2.8 | Cc1cc(=O)cc(C)n1/C=C/c1ccc(OC(F)F)c(OCC2CC2)c1 [Example 88, (E)-1-(3-(cyclopropylmethoxy)-4-(difluoromethoxy)styryl)-2,6-dimethylpyridin-4(1H)-one] | – | – | – | – | < 5 |
